# Laboratory results reported in patent US5405760A, “Process for producing recombinant McrBC endonuclease and cleavage of methylated DNA” (New England Biolabs, Inc., priority 1992, dated 1995).
# Where two headings read alike, the source gives them in different places.
# T1: McrBC (Escherichia coli, UniProt P15005)
# T1 construct: made in house; host or cells: Escherichia coli BL21(DE3)/pER273 (McrBL) and BL21(DE3)/pER276 (McrC)
# T1 sequence (P15005 1-459): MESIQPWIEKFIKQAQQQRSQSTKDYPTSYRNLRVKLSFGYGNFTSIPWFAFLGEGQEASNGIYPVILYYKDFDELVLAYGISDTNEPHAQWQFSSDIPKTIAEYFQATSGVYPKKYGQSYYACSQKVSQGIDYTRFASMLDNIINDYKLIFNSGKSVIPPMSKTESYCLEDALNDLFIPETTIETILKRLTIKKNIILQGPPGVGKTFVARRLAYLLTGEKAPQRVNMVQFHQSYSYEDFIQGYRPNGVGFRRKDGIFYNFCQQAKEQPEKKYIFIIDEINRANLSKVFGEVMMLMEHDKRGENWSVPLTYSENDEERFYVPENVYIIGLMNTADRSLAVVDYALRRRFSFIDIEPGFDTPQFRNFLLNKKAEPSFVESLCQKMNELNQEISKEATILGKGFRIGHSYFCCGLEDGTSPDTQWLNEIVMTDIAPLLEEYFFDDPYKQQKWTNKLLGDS
# B1: McrC: component of McrBC endonuclease, product of the mcrC gene (protein, UniProt P15006 1-348, looked up)
# Type IV methyl-directed …: MEQPVIPVRNIYYMLTYAWGYLQEIKQANLEAIPGNNLLDILGYVLNKGVLQLSRRGLELDYNPNTEIIPGIKGRIEFAKTIRGFHLNHGKTVSTFDMLNEDTLANRIIKSTLAILIKHEKLNSTIRDEARSLYRKLPGISTLHLTPQHFSYLNGGKNTRYYKFVISVCKFIVNNSIPGQNKGHYRFYDFERNEKEMSLLYQKFLYEFCRRELTSANTTRSYLKWDASSISDQSLNLLPRMETDITIRSSEKILIVDAKYYKSIFSRRMGTEKFHSQNLYQLMNYLWSLKPENGENIGGLLIYPHVDTAVKHRYKINGFDIGLCTVNLGQEWPCIHQELLDIFDEYLK
# Columns and labels:
# McrBC = biological target: T1, McrBC; assay: McrBC cleavage of pBR322.AluI with titration of nucleotides; format: biochemical; conditions: for inhibition of McrBC reaction: in the presence of GTP (0.5 mM), analogue 5.0 to 0.04 mM; for support of cleavage of the substrate by nucleotide: nucleotides tested at 1 mM
# Protocol: The optimal buffer composition for both components of McrBC tested was 10 mM Tris-Cl, 10 mM magnesium chloride, 1 mM GTP (pH 7.5 at 25° C.).
# McrBC activity depends on the presence of GTP. […] McrBL Fraction IV and McrC Fraction Va (EXAMPLE I), were used, such that each reaction in each series contained 8 pmol McrBL, 8 pmol of McrC (combined activity on the same day of 5 units) and 0.07 pmol of pBR322.AluI in the presence of decreasing concentrations of nucleotides. Mixtures were made up without McrBL and without nucleotide; nucleotide was added to the first tube in the series; the samples were serially diluted in a manner similar to that described in EXAMPLE I and II; and reactions were begun by addition of McrBL and transfer to 37° C.
# [1] = Properties of the McrBC cleavage reaction (pH, ratio of components); format: biochemical; conditions: higher or lower ratios reduce cleavage activity
# Source text: (a) pH optimum: Activity is detectable when the pH of the reaction is lowered to about 5.8.
# Higher or lower ratios reduce cleavage activity.
# [2] = system: McrBC (chromosomal wild-type operon) (Escherichia coli K-12); assay: cell_activity; conditions: methylated by M.HaeII in vivo; in vivo restriction; abolished by McrBS plasmid
# [3] = pH 7.5, read-out: relative activity
molecule,measurement,setting,value
Nc1ncnc2c1ncn2[C@@H]1O[C@H](COP(=O)(O)OP(=O)(O)NP(=O)(O)O)[C@@H](O)[C@H]1O [AMP-PNP],inhibition of McrBC reaction,McrBC,did not inhibit McrBC
same,inhibition of McrBC at high concentrations,McrBC; near 10 mM,partial inhibition
Nc1ncnc2c1ncn2[C@@H]1O[C@H](COP(=O)(O)OP(=O)(O)OP(O)(O)=S)[C@@H](O)[C@H]1O [ATP-gamma-S],inhibition of McrBC reaction,McrBC,did not inhibit the enzyme
Nc1ncnc2c1ncn2[C@@H]1O[C@H](COP(=O)(O)OP(=O)(O)OP(=O)(O)O)[C@@H](O)[C@H]1O [ATP],concentration at which inhibition of McrBC activity began,McrBC; 0.5 mM GTP (equimolar),0.5 mM
same,inhibition of McrBC reaction,McrBC,inhibited the reaction
same,activity at 620 µM,McrBC; [3],25%
same,activity at 1250 µM,McrBC; [3],< 10%
same,activity at 2500 µM,McrBC; [3],< 1%
Nc1nc2c(ncn2[C@@H]2O[C@H](COP(=O)(O)OP(=O)(O)O)[C@@H](O)[C@H]2O)c(=O)[nH]1 [GDP],support of cleavage of the substrate by nucleotide,McrBC,Neither GDP or GMP supported cleavage
Nc1nc2c(ncn2[C@@H]2O[C@H](COP(=O)(O)OP(=O)(O)NP(=O)(O)O)[C@@H](O)[C@H]2O)c(=O)[nH]1 [GMP-PNP],inhibition of the GTP-supported reaction,"McrBC; 5 mM analogue, 0.5 mM GTP",partial inhibition
same,activity at 1250 µM,"McrBC; pH 7.5, 0.5 mM GTP and 1.25 mM GMP-PNP, read-out: relative activity",50%
same,activity at 5000 µM,"McrBC; pH 7.5, 0.5 mM GTP and 5 mM GMP-PNP, read-out: relative activity",< 10%
Nc1nc2c(ncn2[C@@H]2O[C@H](COP(=O)(O)O)[C@@H](O)[C@H]2O)c(=O)[nH]1 [GMP],support of cleavage of the substrate by nucleotide,McrBC,Neither GDP or GMP supported cleavage
Nc1nc2c(ncn2[C@@H]2O[C@H](COP(=O)(O)OP(=O)(O)OP(O)(O)=S)[C@@H](O)[C@H]2O)c(=O)[nH]1 [GTP-gamma-S],relative activity,McrBC; 0.5 mM GTP and as little as 0.04 mM GTP-gamma-S,no activity was detectable
same,inhibition of McrBC reaction,McrBC,completely inhibit
Nc1nc2c(ncn2[C@@H]2O[C@H](COP(=O)(O)OP(=O)(O)OP(=O)(O)O)[C@@H](O)[C@H]2O)c(=O)[nH]1 [GTP],activity at 620 µM,"McrBC; 0.62 mM GTP, 10 mM Tris-Cl, 10 mM magnesium chloride, pH 7.5, read-out: relative activity",100%
same,support of the reaction by GTP alone,McrBC; 2.5 mM GTP,supported the reaction normally
same,effect of high levels of GTP on the enzyme,McrBC; 5 mM GTP,inhibit the enzyme
same,GTP concentration at which cleavage can be detected,"McrBC; lane h, lowest concentration",40 nM
same,activity at 40 µM,"McrBC; pH 7.5, 0.04 mM GTP, same buffer, read-out: relative activity",≤ 10%
same,activity at 310 µM,"McrBC; pH 7.5, 0.31 mM GTP, same buffer, read-out: relative activity",50%
"McrB: large polypeptide product of the mcrB gene, component of McrBC",Optimal ratio of McrB to McrC,[1],between one and ten molecules of McrB per molecule of McrC
phage lambda modified by M.HaeII,activity (fold reduction in plaques),[2],33
B1,Optimal ratio of McrC to sites,[1],between one and six molecules of McrC per cleavable site
